{"source": "paper PMC12238723", "about": "“Phase I Clinical Trial of CVL218, a Novel PARP1/2 Inhibitor, in Patients with Advanced Solid Tumors” (MedComm, 2025)", "system": "advanced solid tumors", "assay": "Antitumor activity, tumor response per RECIST 1.1 and PFS", "assay_type": "in vivo, patients", "excerpt": "This study was a single‐arm, dose‐escalation phase I trial conducted in Sun Yat‐sen University Cancer Center in China. This study assessed CVL218 in patients with histologically or cytologically confirmed advanced solid tumors who were in PD after standard therapeutic regimens or lacked standard treatment options. Inclusion criteria included: age 18–75 years; with at least one measurable and evaluable target lesion per Response Evaluation Criteria in Solid Tumors 1.1 (RECIST 1.1); ECOG performance status of 0 or 1; adequate hematological, renal, cardiac, and hepatic functions and a life expectancy ≥12 weeks. Key exclusion criteria included prior usage of PARP inhibitors; allergic to the research drug or its components; with active, unstable systemic diseases or active, uncontrolled infection; a history of other malignancies within 5 years, and pregnant or lactating women.\nSingle‐dose and multiple‐dose PK parameters included C max, T max, elimination half‐life (T 1/2), AUC0– t , AUC0–inf, oral clearance (CL/F), and apparent volume of distribution (V z/F) for CVL218. Tumor response was assessed per RECIST 1.1. ORR was defined as proportion of patients with a CR or PR on at least one visit, while DCR was defined as proportion of patients with a CR or PR or SD. PFS was defined as the time from the first dose of either drug to investigator assessed radiologic PD or to death of any cause. PFS would be censored at the time of last tumor assessment.\nSubjects who received at least one dose of CVL218 with postadministration safety records were included in safety analysis set. Subjects who received at least one dose of CVL218 with at least one evaluable PK parameter were included in PK analysis set. Per‐protocol set were used for efficacy analysis. Descriptive statistics of safety were presented per CTCAE v5.0. The PK parameters T max and T 1/2 were shown as the median (min, max) and mean ± SD, respectively. A two‐sided p < 0.05 was considered to indicate statistical significance. Statistical analysis was performed by using GraphPad prism 8.0.2 and R‐4.3.3."}
{"smiles": "CNCc1ccc(-c2cc3cc(F)cc(C(N)=O)c3o2)cc1.Cl", "note": "[CVL218]", "values": [{"measurement": "BOR, CR", "setting": "50 mg BID (N = 1)", "value": "0 n (%)"}, {"measurement": "BOR, PD", "setting": "50 mg BID (N = 1)", "value": "1 (100) n (%)"}, {"measurement": "BOR, PR", "setting": "50 mg BID (N = 1)", "value": "0 n (%)"}, {"measurement": "DCR", "setting": "50 mg BID (N = 1)", "value": "0 (0, 97.50) n (%) (95%CI)"}, {"measurement": "ORR", "setting": "50 mg BID (N = 1)", "value": "0 (0, 97.5) n (%) (95%CI)"}, {"measurement": "mPFS", "setting": "50 mg BID (N = 1)", "value": 1.05, "unit": "months"}, {"measurement": "BOR, CR", "setting": "100 mg BID (N = 1)", "value": "0 n (%)"}, {"measurement": "BOR, PD", "setting": "100 mg BID (N = 1)", "value": "1 (100) n (%)"}, {"measurement": "BOR, PR", "setting": "100 mg BID (N = 1)", "value": "0 n (%)"}, {"measurement": "DCR", "setting": "100 mg BID (N = 1)", "value": "0 (0, 97.50) n (%) (95%CI)"}, {"measurement": "ORR", "setting": "100 mg BID (N = 1)", "value": "0 (0, 97.5) n (%) (95%CI)"}, {"measurement": "mPFS", "setting": "100 mg BID (N = 1)", "value": 1.05, "unit": "months"}, {"measurement": "BOR, CR", "setting": "200 mg BID (N = 1)", "value": "0 n (%)"}, {"measurement": "BOR, PD", "setting": "200 mg BID (N = 1)", "value": "0 n (%)"}, {"measurement": "BOR, PR", "setting": "200 mg BID (N = 1)", "value": "0 n (%)"}, {"measurement": "DCR", "setting": "200 mg BID (N = 1)", "value": "1 (100) (2.5, 100.0) n (%) (95%CI)"}, {"measurement": "ORR", "setting": "200 mg BID (N = 1)", "value": "0 (0, 97.5) n (%) (95%CI)"}, {"measurement": "mPFS", "setting": "200 mg BID (N = 1)", "value": 1.97, "unit": "months"}, {"measurement": "BOR, CR", "setting": "350 mg BID (N = 4)", "value": "0 n (%)"}, {"measurement": "BOR, PD", "setting": "350 mg BID (N = 4)", "value": "1 (25.0) n (%)"}, {"measurement": "BOR, PR", "setting": "350 mg BID (N = 4)", "value": "0 n (%)"}, {"measurement": "DCR", "setting": "350 mg BID (N = 4)", "value": "3 (75.0) (19.4, 99.4) n (%) (95%CI)"}, {"measurement": "ORR", "setting": "350 mg BID (N = 4)", "value": "0 (0, 60.2) n (%) (95%CI)"}, {"measurement": "mPFS", "setting": "350 mg BID (N = 4)", "value": 2.34, "unit": "months"}, {"measurement": "BOR, CR", "setting": "500 mg BID (N = 4)", "value": "0 n (%)"}, {"measurement": "BOR, PD", "setting": "500 mg BID (N = 4)", "value": "1 (25.0) n (%)"}, {"measurement": "BOR, PR", "setting": "500 mg BID (N = 4)", "value": "0 n (%)"}, {"measurement": "DCR", "setting": "500 mg BID (N = 4)", "value": "3 (75.0) (19.4, 99.4) n (%) (95%CI)"}, {"measurement": "ORR", "setting": "500 mg BID (N = 4)", "value": "0 (0, 60.2) n (%) (95%CI)"}, {"measurement": "mPFS", "setting": "500 mg BID (N = 4)", "value": 3.27, "unit": "months"}, {"measurement": "BOR, CR", "setting": "600 mg BID (N = 3)", "value": "0 n (%)"}, {"measurement": "BOR, PD", "setting": "600 mg BID (N = 3)", "value": "3 (100) n (%)"}, {"measurement": "BOR, PR", "setting": "600 mg BID (N = 3)", "value": "0 n (%)"}, {"measurement": "DCR", "setting": "600 mg BID (N = 3)", "value": "0 (0, 70.8) n (%) (95%CI)"}, {"measurement": "ORR", "setting": "600 mg BID (N = 3)", "value": "0 (0, 70.8) n (%) (95%CI)"}, {"measurement": "mPFS", "setting": "600 mg BID (N = 3)", "value": 1.02, "unit": "months"}, {"measurement": "BOR, CR", "setting": "700 mg BID (N = 6)", "value": "0 n (%)"}, {"measurement": "BOR, PD", "setting": "700 mg BID (N = 6)", "value": "0 n (%)"}, {"measurement": "BOR, PR", "setting": "700 mg BID (N = 6)", "value": "0 n (%)"}, {"measurement": "DCR", "setting": "700 mg BID (N = 6)", "value": "6 (100) (54.1, 100.0) n (%) (95%CI)"}, {"measurement": "ORR", "setting": "700 mg BID (N = 6)", "value": "0 (0, 45.9) n (%) (95%CI)"}, {"measurement": "mPFS", "setting": "700 mg BID (N = 6)", "value": 2.27, "unit": "months"}, {"measurement": "BOR, CR", "setting": "850 mg BID (N = 4)", "value": "0 n (%)"}, {"measurement": "BOR, PD", "setting": "850 mg BID (N = 4)", "value": "0 n (%)"}, {"measurement": "BOR, PR", "setting": "850 mg BID (N = 4)", "value": "0 n (%)"}, {"measurement": "DCR", "setting": "850 mg BID (N = 4)", "value": "4 (100) (39.8, 100.0) n (%) (95%CI)"}, {"measurement": "ORR", "setting": "850 mg BID (N = 4)", "value": "0 (0, 60.2) n (%) (95%CI)"}, {"measurement": "mPFS", "setting": "850 mg BID (N = 4)", "value": 2.35, "unit": "months"}, {"measurement": "mPFS", "setting": "7 breast cancer patients", "value": 1.71, "unit": "months"}, {"measurement": "mPFS", "setting": "7 patients whose best overall response was PD", "value": 1.05, "unit": "months"}, {"measurement": "mPFS", "setting": "10 patients on high-level doses (≥700 mg BID)", "value": 2.35, "unit": "months"}, {"measurement": "mPFS", "setting": "14 patients on low-level doses (<700 mg BID)", "value": 1.80, "unit": "months"}, {"measurement": "mPFS", "setting": "17 patients with SD", "value": 2.79, "unit": "months"}, {"measurement": "complete response (CR) or partial response (PR)", "setting": "24 subjects of efficacy analysis set", "value": "none of them achieved complete response (CR) or partial response (PR)"}, {"measurement": "BOR, CR", "setting": "Breast cancer (N=7)", "value": "0 n (%)"}, {"measurement": "BOR, PD", "setting": "Breast cancer (N=7)", "value": "2 (28.6) n (%)"}, {"measurement": "BOR, PR", "setting": "Breast cancer (N=7)", "value": "0 n (%)"}, {"measurement": "DCR", "setting": "Breast cancer (N=7)", "value": "71.4 (29.0, 96.3) n (%) (95%CI)"}, {"measurement": "ORR", "setting": "Breast cancer (N=7)", "value": "0 (0, 41.0) n (%) (95%CI)"}, {"measurement": "mPFS", "setting": "Breast cancer (N=7)", "value": 1.71, "unit": "months"}, {"measurement": "BOR, CR", "setting": "Lung cancer (N=10)", "value": "0 n (%)"}, {"measurement": "BOR, PD", "setting": "Lung cancer (N=10)", "value": "4 (40.0) n (%)"}, {"measurement": "BOR, PR", "setting": "Lung cancer (N=10)", "value": "0 n (%)"}, {"measurement": "ORR", "setting": "Lung cancer (N=10)", "value": "0 (0, 30.9) n (%) (95%CI)"}, {"measurement": "mPFS", "setting": "Lung cancer (N=10)", "value": 2.12, "unit": "months"}, {"measurement": "BOR, CR", "setting": "Other types (N=7)", "value": "0 n (%)"}, {"measurement": "BOR, PD", "setting": "Other types (N=7)", "value": "1 (14.3) n (%)"}, {"measurement": "BOR, PR", "setting": "Other types (N=7)", "value": "0 n (%)"}, {"measurement": "DCR", "setting": "Other types (N=7)", "value": "85.7 (42.1, 99.6) n (%) (95%CI)"}, {"measurement": "ORR", "setting": "Other types (N=7)", "value": "0 (0, 41) n (%) (95%CI)"}, {"measurement": "mPFS", "setting": "Other types (N=7)", "value": 1.91, "unit": "months"}, {"measurement": "BOR, CR", "setting": "Overall (N = 24)", "value": "0 n (%)"}, {"measurement": "BOR, PD", "setting": "Overall (N = 24)", "value": "7 (29.2) n (%)"}, {"measurement": "BOR, PR", "setting": "Overall (N = 24)", "value": "0 n (%)"}, {"measurement": "DCR", "setting": "Overall (N = 24)", "value": "17 (70.8) (48.9, 87.4) n (%) (95%CI)"}, {"measurement": "ORR", "setting": "Overall (N = 24)", "value": "0 (0, 14.3) n (%) (95%CI)"}, {"measurement": "mPFS", "setting": "Overall (N = 24)", "value": 1.89, "unit": "months"}, {"measurement": "median PFS (mPFS)", "setting": "all subjects, PFS events in 24 patients", "value": 1.89, "unit": "months"}, {"measurement": "DCR", "setting": "breast cancer", "value": 71.4, "unit": "%"}, {"measurement": "disease control rate (DCR)", "setting": "high-level doses (≥700 mg BID, n = 10)", "value": 100, "unit": "%"}, {"measurement": "disease control rate (DCR)", "setting": "low-level dose group (<700 mg BID, n = 14)", "value": 50, "unit": "%"}, {"measurement": "DCR", "setting": "lung cancer", "value": 60, "unit": "%"}, {"measurement": "DCR", "setting": "other cancers", "value": 85.7, "unit": "%"}, {"measurement": "disease control rate (DCR)", "setting": "overall, 24 patients", "value": 70.8, "unit": "%"}, {"measurement": "mPFS", "setting": "patients with lung cancer", "value": 2.12, "unit": "months"}, {"measurement": "disease control rate (DCR)", "setting": "recommended dose (700 mg BID, n = 6)", "value": 100, "unit": "%"}, {"measurement": "mPFS", "setting": "seven patients with other cancer types", "value": 1.91, "unit": "months"}]}
